Values quoted from earlier work as cited in patent publication US20090137653A1, “SUBSTITUTED BENZYLAMINES AS CYP2A INHIBITORS AND USES THEREOF TO TREAT NICOTINE DEPENDENCE” (INFLAYZME PHARMACEUTICALS LTD., priority 2005, published 2009).

Experiments:
CYP2A6 = CYP2A6 (Homo sapiens, UniProt P11509); conditions: read-out: CYP2A6 Ki; human liver microsomes
Chain of CYP2A6 (P11509 whole entry): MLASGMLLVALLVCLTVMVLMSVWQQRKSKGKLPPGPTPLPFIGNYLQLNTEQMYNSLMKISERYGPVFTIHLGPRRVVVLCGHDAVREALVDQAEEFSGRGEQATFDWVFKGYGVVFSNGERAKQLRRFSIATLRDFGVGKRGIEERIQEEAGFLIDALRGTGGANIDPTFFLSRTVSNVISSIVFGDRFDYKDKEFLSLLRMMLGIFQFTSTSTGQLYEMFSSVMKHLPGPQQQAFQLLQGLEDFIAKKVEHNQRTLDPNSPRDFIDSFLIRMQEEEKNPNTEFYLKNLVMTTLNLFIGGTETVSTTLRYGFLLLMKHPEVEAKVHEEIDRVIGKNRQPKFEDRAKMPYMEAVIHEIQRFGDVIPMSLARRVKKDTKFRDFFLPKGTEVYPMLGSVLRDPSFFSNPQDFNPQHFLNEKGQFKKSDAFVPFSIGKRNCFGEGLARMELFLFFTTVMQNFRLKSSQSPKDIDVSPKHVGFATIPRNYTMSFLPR

SMILES	Ki (CYP2A6)	half-life (in vivo)	eliminated by first pass effect (taken orally, liver)
N[C@@H]1C[C@H]1c1ccccc1 (racemic) [tranylcypromine]	200 nM		
CN1CCCC1c1cccnc1 (stereo not drawn) [nicotine]		1 to 2 h	around 70%
